# From patent US20050221381A1, “Method for isolating ligands” (priority 2002, published 2005)
# “Also recorded” adds a separate entry of the source.
# How the values were obtained:
# [1] = test system: CD8+ T-cells, HLA-A*0201 positive T2 cells; details: interferon-gamma ELIspot
# HLA-A2 = HLA-A2 (Homo sapiens, UniProt P04439, D140Y/D185E/D98H/E176V/E277Q/G131W/G231S/I119V/I121R/I166T/I218V/L300P/L318F/N151K/N90K/P208A/P217A/Q86G/Q94H/R138H/R169H/T345S); details: cited from earlier work
# [2] = biological target: T1, soluble DRB1*0401 molecules (DR4) (Homo sapiens, UniProt P01903+P01911, A100K/A169T/F76Y/I96L/K127E/L162R/M171V/N62H/P40V/Q125Y/R42H/S133A/S149N/S66Y/V115G/V209L/W38E); type: binding; design: key to DR4 binding: +++: high binding affinity; ++: moderate binding affinity; +: low binding affinity; −: no binding; details: SDS-stability assay
# T1 construct: Soluble HLA class I A*0201 and HLA class II DRA1*0101/DRB1*0101/Ii, DRA1*0101/DRB1*0401/Ii and DRA1*0101/DRB1*0404/Ii molecules were expressed in SC-2 cells; made in house; host or cells: SC-2 cells
# isolated CD4+ T cells = assay: Synthetic IFN-γ Elispot assay with sHLA DRB1*0401 and anti CD28; type: cell-based, human; details: sHLA DRB1*0401 loaded with peptide, vs negative control peptide p84 (FIG. 5a)
# [3] = biological target: T2, soluble DRB1*0401 molecules (Homo sapiens, UniProt P01903+P01911, A100K/A169T/F76Y/I96L/K127E/L162R/M171V/N62H/P40V/Q125Y/R42H/S133A/S149N/S66Y/V115G/V209L/W38E); assay: Epitope capture from peptide mixtures, gel filtration and MALDI-TOF MS of bound peptides; type: binding
# T2 construct: Soluble HLA class I A*0201 and HLA class II DRA1*0101/DRB1*0101/Ii, DRA1*0101/DRB1*0401/Ii and DRA1*0101/DRB1*0404/Ii molecules were expressed in SC-2 cells; made in house; host or cells: SC-2 cells
# From the text: After peptide binding reaction with soluble HLA molecules, HLA-peptide complexes were separated from free peptides by gel-filtration chromatography on Superdex-200 column (AKTAdesign, Amersham Pharmacia Biotech). HLA-containing fractions were collected, and bound peptides were reconstituted from the complexes by adding TFA to the final concentration of 1%. Peptides were desolted by Ziptip purification and analyzed by MALDI-TOF mass-spectrometry.
# Second, the ability to capture peptides binding to HLA class II molecules from the mixture of two high affinity ligands was tested. The binding reaction contained 1 μM of soluble DRB1*0401 molecules and 5 μM of each YAR and 1242 peptide. After the HLA-peptide complexes were formed, they were separated from the excess of free peptides by gel filtration chromatography. Fractions containing MHC molecules were collected. Bound peptides were eluted from the complexes and analyzed by mass-spectrometry.
# Third, it was investigated if the binding capacity of the high affinity ligand would be influenced by the excess of low affinity peptide. […] Peptide binding was assessed by SDS-stability assay and verified by MS analysis (FIG. 3).
# The final concentration of each peptide in binding reaction was 5 μM, except 1236 added in 55 μM, meaning that the concentration of each individual binding peptide was 20-fold lower than final concentration of all peptides. DRB1*0401 molecules were added to 1 μM. The formation of MHC-peptide complexes was evaluated as described above, using single peptides as controls (FIG. 4). […] The result of this analysis yielded the two peptides with highest binding affinities: 1242 and YAR (see Table 1). The peptides with moderate and/or low affinities were not found in the complexes, probably due to the high concentration of strong competitors used in this assay.
# [4] = test system: CMV mutants resistant to Ganciclovir, Cidofuvir and Foscarnet; details: cited from earlier work
# [5] = in vivo; cited from earlier work
# CMV = details: cited from earlier work
compound,measurement,setting,value
RLLQTGIHV,Confirmation as HLA-A*0201 epitope / induction of functional T-cells (in words),[1],induce functional T-cells
same,Binding to HLA-A2 / stabilisation of HLA-A2/β2m/peptide complex,HLA-A2,can stabilize; also recorded: has been demonstrated
YNINISLPSYYPDQKSL [Peptide 1242],Binding to soluble DRB1*0401 molecules (in words),[2],highest
same,DR4 binding,"[2]; direct binding of individual peptides, compared with YAR and HA306-318",+++
same,Number of induced IFN-γ spots,isolated CD4+ T cells,significantly above the spontaneous IFN-γ secretion
same,Formation of stable MHC-complexes in presence of excess low affinity peptide,"[3]; 1242 5 to 50 μM, 100 μM peptide 1236 (2-20 fold excess), 1 μM DRB1*0401",does not impede the formation of stable MHC-complexes
same,"Peptides captured from pool of 10 peptides, MS analysis","[3]; each peptide 5 μM, 1236 55 μM, DRB1*0401 1 μM",captured by DR4 molecules
same,Peptides found in complexes with MHC molecules by MS,"[3]; mixture of two ligands, 5 μM each, 1 μM DRB1*0401",revealed in the complexes with MHC molecules
Fomivirsen,Efficacy against multidrug resistant mutants,[4],effective against such mutants
CC(C)[C@H](N)C(=O)OCC(CO)OCn1cnc2c(=O)nc(N)[nH]c21 (stereo partly drawn) [Valganciclovir],Oral bioavailability,[5],markedly increased
same,Incidence of CMV disease,"CMV; kidney transplant patients, given for three months",reduced the incidence of CMV disease
same,Proportion of patients with biopsy-proven rejection,CMV; six months after transplantation,significant reduction
